In patent US8309610B2, “Crystalline forms of (1RS,3RS,6RS)-6-dimethylaminomethyl-1-(3-methoxyphenyl)cyclohexane-1,3-diol hydrochloride” (priority 2005, dated 2012):
Structures can show the parent of a compound that is named as a salt.

Experiments:
Type in all cases: physicochemical
[1] = solubility in water
[2] = water absorption / hygroscopicity
[3] = stability in organic media; settings: chloroform, dioxane, ethyl acetate, hexane, tetrahydrofuran, toluene; room temperature or higher (e.g. up to 40° C.)
[4] = storage in humidity chamber, polymorph conversion
Excerpt: Crystalline form B in an open glas container is stored in a humidity chamber at relative humidity of 35% and room temperature. Samples were taken prior to storage and after 4, 14, 19 and 21 days of storage under these conditions.
Crystalline form B in an open glas container is stored in a humidity chamber at relative humidity of 60% and room temperature. Samples were taken prior to storage and after 7, 17 and 22 days of storage under these conditions.
Crystalline form B in an open glas container is stored in a humidity chamber at relative humidity of 75% and room temperature. Samples were taken prior to storage and after 6, 13 and 23 days of storage under these conditions.

[5] = variable temperature X-ray powder diffraction experiment; settings: 90° C., after half an hour
Experimental: Variable temperature Powder Diffraction Data Collection was carried out on a Shimadzu XRD-6000X-ray powder diffractometer using Cu Kα radiation. The instrument is equipped with a fine focus X-ray tube. The tube voltage and amperage were set to 40 kV and 40 mA, respectively. The divergence and scattering slits were set at 1° and the receiving slit was set at 0.15 mm. Diffracted radiation was detected by a NaI scintillation detector. A theta-two theta continuous scan at 3°/min (0.4 sec/0.02° step) from 2,5 to 40° 2 θ was used. A silicon standard was analyzed each day to check the instrument alignment. The instrument was equipped with an Anton Paar HTK 1200 high temperature stage and a ceramic sample holder

Compound: COc1cccc([C@@]2(O)C[C@H](O)CC[C@@H]2CN(C)C)c1 (racemic) [form A, (1RS,3RS,6RS)-6-Dimethylaminomethyl-1-(3-methoxy-phenyl)cyclohexane-1,3-diol hydrochloride]
- solubility in water [1]: very high solubility in water
- resistance to water absorption ([2]; up to 60% relative humidity, room temperature, at least up to three weeks): resistant to water absorption
- stability in organic media [3]: stable in organic media

Compound: COc1cccc([C@@]2(O)C[C@H](O)CC[C@@H]2CN(C)C)c1 (racemic) [form B, (1RS,3RS,6RS)-6-Dimethylaminomethyl-1-(3-methoxy-phenyl)cyclohexane-1,3-diol hydrochloride]
- crystalline form found after storage [4]: crystalline form B only
- conversion to another polymorph under high humidity ([4]; high humidity): not converted to another polymorph
- solid form conversion on heating [5]: converted to form E

Compound: COc1cccc([C@@]2(O)C[C@H](O)CC[C@@H]2CN(C)C)c1 (racemic) [form C, (1RS,3RS,6RS)-6-Dimethylaminomethyl-1-(3-methoxy-phenyl)cyclohexane-1,3-diol hydrochloride]
- hygroscopicity ([2]; compared with all known polymorphic forms): lowest hygroscopicity of all known polymorphic forms
